From patent publication US4666897A, “Inhibition of mammalian collagenolytic enzymes by tetracyclines” (Research Foundation of State University, priority 1983, dated 1987)

How the values were obtained:
[1] = target: T1, rat PMNL collagenolytic activity (PMNL collagenase) (Rattus norvegicus, UniProt O88766); test: Rat PMNL collagenolytic activity in vitro (14C-collagen gel lysis); assay type: biochemical; details: for Collagenolytic Activity: % ^14 C-collagen gel lyzed / effect on PMNL collagenolytic activity, in words: Table 2; for Collagenolytic Activity: % ^14 C-collagen gel lyzed: PMNL extract (30 × 10^6 PMNLs per ml) + 20 ug/ml, control extract 39.0
T1 construct: An extract of PMNLs was prepared; from tissue; host or cells: extract of peritoneal exudate polymorphonuclear leucocytes of non-diabetic rats, elicited with glycogen
T1 sequence (O88766 102-466): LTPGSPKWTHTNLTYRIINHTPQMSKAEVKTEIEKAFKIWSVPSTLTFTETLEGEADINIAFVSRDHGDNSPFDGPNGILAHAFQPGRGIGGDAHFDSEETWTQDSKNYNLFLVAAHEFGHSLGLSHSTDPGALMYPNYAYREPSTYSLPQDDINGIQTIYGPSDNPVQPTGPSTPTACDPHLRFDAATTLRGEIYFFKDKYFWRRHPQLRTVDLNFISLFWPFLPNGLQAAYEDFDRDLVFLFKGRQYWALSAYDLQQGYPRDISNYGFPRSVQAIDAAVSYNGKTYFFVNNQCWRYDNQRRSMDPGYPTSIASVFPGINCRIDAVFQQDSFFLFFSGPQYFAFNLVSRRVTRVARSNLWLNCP
Protocol: To test the effect of physiologic levels of minocycline (the concentration in human serum, during a therapeutic regimen, is approximately 2 ug/ml; that in the gingival crevicular fluid is 4-5 times greater; Ciancio, et. al., 1980, J. Periodontol., 51, 531-534) on mammalian collagenolytic activity in vitro, peritonealexudate polymorphomuclear leucocytes (PMNLs) were collected from 15 mole (non-diabetic) rats 4 hours after I.P. injection of 0.15% glycogen. An extract of PMNLs was prepared, 250 μl aliquots of this extract were incubated with ^14 C-glycine labeled collagen fibrils for 14 hours at 35° C. (in the presence or absence of minocycline, or EDTA, or additional CaCl2), and collagenolytic activity was measured as described by Nicoll, et al., (Experientia., 37, 315-317).
The techniques used to measure the collagenolytic enzyme activity of gingival tissue in culture, and in polymorphonuclear leucocytes (PMNLs), are those described by Golub, et. al., (J. Dent. Res., 57, 520-525 (197)8) and Nicoll, et. al., (Experimentia, 37, 315-317, (1981)) with minor modifications.

[2] = tested on: fetal rat bones (radii and ulnae) in organ culture; test: PTH-induced bone resorption in organ culture (45calcium release); assay type: cell-based; details: for effect on PTH-enhanced bone resorption, in words: concentrations 0.2-300 μg/ml
Protocol: The technique used to assess bone resorption is based on monitoring the release of radioactive calcium, previously incorporated by embryonic bones in vivo, during organ culture. Pregnant Sprague-Dawley rats were injected subcutaneously with 200 μCi of ^45 calcium chloride on the 18th day of gestation. The following day, the animals were killed, the fetuses removed, and the radii and ulnae dissected under aseptic conditions. […] The bones were then randomly distributed and each bone, either a radius or ulna, was incubated in 0.5 ml of culture media alone or in a media containing parathyroid hormone (PTH: human synthetic 1-34 peptide, Beckman Instruments, Inc., Palo Alto, California) added in a final concentration of 1.0 μg/ml; the experimental bones were incubated in the PTH containing medium to which was added different concentrations (0.2-300 μg/ml) of the antibiotics to be tested. The bones were cultured for 5 days, with the media being changed after day 2, and the incubation terminated. The bones were decalcified in 0.2 ml of 5% trichloroacetic acid and the ^45 calcium content of the residual bones and of the culture media was measured as described previously. (Werner and Raisz, Endocrinology, 90, 752 (1972 ) and Gomes, et. al., Calc. Tiss. Res., 19, 285 (1976)). The ^45 calcium released into the media was calculated as a percentage of the total radioactive calcium measured in the bones.

Collagenolytic Activity: % ^14 C-collagen gel lyzed [1]	effect on PMNL collagenolytic activity, in words [1]	Molecule	^45 Calcium in Fetal Bone Released into Media (%) after 2 days incubation ([2]; Table 5, PTH + 6 μg/ml)	^45 Calcium in fetal bone Released into media (%) after 5 days incubation ([2]; Table 5, PTH + 6 μg/ml)	^45 Calcium in Fetal Bone Released into Media (%) after 2 days incubation ([2]; Table 5, PTH + 20 μg/ml)	^45 Calcium in fetal bone Released into media (%) after 5 days incubation ([2]; Table 5, PTH + 20 μg/ml)	^45 Calcium in Fetal Bone Released into Media (%) after 2 days incubation ([2]; Table 5, PTH + 60 μg/ml)	^45 Calcium in fetal bone Released into media (%) after 5 days incubation ([2]; Table 5, PTH + 60 μg/ml)	^45 Calcium in Fetal Bone Released into Media (%) after 2 days incubation ([2]; Table 5, PTH + 200 μg/ml)	^45 Calcium in fetal bone Released into media (%) after 5 days incubation ([2]; Table 5, PTH + 200 μg/ml)	effect on PTH-enhanced bone resorption, in words [2]	also measured
		O=C(O)CN(CCN(CC(=O)O)CC(=O)O)CC(=O)O [EDTA]										effect on PMNL collagenolytic (collagenase) activity, in words ([1]; Table 1): completely inihibited; Collagenolytic Activity: % ^14 C-collagen gel lysed ([1]; Table 1, PMNL extract + 54 mM, control extract 85.5): 3.1%
35.7%	ineffective	CC1(C)S[C@@H]2[C@H](NC(=O)[C@H](N)c3ccccc3)C(=O)N2[C@H]1C(=O)O [ampicillin]	52.3 ± 1.9%	92.2 ± 2.0%	52.8 ± 1.7%	92.6 ± 0.5%	50.9 ± 1.7%	93.9 ± 0.7%	50.8 ± 1.8%	91.4 ± 0.7%	no detectable effect	^45 Calcium in Fetal Bone Released into Media (%) after 2 days incubation ([2]; Table 5, PTH + 40 μg/ml): 51.9 ± 2.1%; ^45 Calcium in fetal bone Released into media (%) after 5 days incubation ([2]; Table 5, PTH + 40 μg/ml): 94.2 ± 1.1%
50.0%	ineffective	Cc1nnc(SCC2=C(C(=O)O)N3C(=O)[C@@H](NC(=O)Cn4cnnn4)[C@H]3SC2)s1 [cefazolin]	50.8 ± 1.3%	93.1 ± 0.5%	54.2 ± 1.4%	93.6 ± 0.4%	54.5 ± 1.2%	94.6 ± 1.2%	50.9 ± 1.3%	92.1 ± 0.6%	no detectable effect	^45 Calcium in Fetal Bone Released into Media (%) after 2 days incubation ([2]; Table 5, PTH + 120 μg/ml): 50.3 ± 3.1%; ^45 Calcium in fetal bone Released into media (%) after 5 days incubation ([2]; Table 5, PTH + 120 μg/ml): 90.2 ± 3.1%
		[H]/N=C(/N)N[C@H]1[C@H](O)[C@@H](O)[C@H](O[C@@H]2O[C@@H](C)[C@](O)(C=O)[C@H]2O[C@@H]2O[C@@H](CO)[C@H](O)[C@@H](O)[C@@H]2NC)[C@@H](N/C(N)=N\[H])[C@@H]1O [streptomycin]									no detectable effect	
		PTH: parathyroid hormone, human synthetic 1-34 peptide, Beckman Instruments, final concentration 1.0 μg/ml										increase of the loss of radiolabeled calcium by addition of PTH ([2]; PTH 1.0 μg/ml versus culture media alone, Tables 3-5): 90-160%; ^45 Calcium in Fetal Bone Released into Media (%) after 2 days incubation ([2]; Table 3, PTH alone 1.0 μg/ml, no addition 19.9 ± 1.5): 46.1 ± 1.9%; ^45 Calcium in fetal bone Released into media (%) after 5 days incubation ([2]; Table 3, PTH alone 1.0 μg/ml, no addition 27.6 ± 1.3): 73.3 ± 1.3%; ^45 Calcium in Fetal Bone Released into Media (%) after 2 days incubation ([2]; Table 4, PTH alone, no addition 27.1 ± 1.0): 61.6 ± 1.2%; ^45 Calcium in Fetal Bone Released into Media (%) after 2 days incubation ([2]; Table 4, PTH alone, no addition 50.8 ± 1.8): 97.9 ± 0.7%; ^45 Calcium in Fetal Bone Released into Media (%) after 2 days incubation ([2]; Table 5, PTH alone, no addition 22.4 ± 0.7): 51.2 ± 1.4%; ^45 Calcium in fetal bone Released into media (%) after 5 days incubation ([2]; Table 5, PTH alone, no addition 46.7 ± 3.0): 91.9 ± 1.7%

Molecule	Collagenolytic Activity: % ^14 C-collagen gel lyzed [1]	effect on PMNL collagenolytic activity, in words [1]	^45 Calcium in Fetal Bone Released into Media (%) after 2 days incubation ([2]; Table 5, PTH + 6 μg/ml)	^45 Calcium in fetal bone Released into media (%) after 5 days incubation ([2]; Table 5, PTH + 6 μg/ml)	^45 Calcium in Fetal Bone Released into Media (%) after 2 days incubation ([2]; Table 5, PTH + 20 μg/ml)	^45 Calcium in fetal bone Released into media (%) after 5 days incubation ([2]; Table 5, PTH + 20 μg/ml)	^45 Calcium in Fetal Bone Released into Media (%) after 2 days incubation ([2]; Table 5, PTH + 60 μg/ml)	^45 Calcium in fetal bone Released into media (%) after 5 days incubation ([2]; Table 5, PTH + 60 μg/ml)	^45 Calcium in Fetal Bone Released into Media (%) after 2 days incubation ([2]; Table 5, PTH + 200 μg/ml)	^45 Calcium in fetal bone Released into media (%) after 5 days incubation ([2]; Table 5, PTH + 200 μg/ml)	effect on PTH-enhanced bone resorption, in words [2]	also measured
CN(C)[C@@H]1C(=O)C(C(N)=O)=C(O)[C@@]2(O)C(=O)C3=C(O)c4c(O)cccc4[C@@](C)(O)[C@H]3[C@H](O)[C@@H]12 [Terramycin, Oxytetracycline]	4.4%											
